Test results published in ChEMBL document CHEMBL6121016, “Design, Synthesis, and Biological Evaluation of 1,3,4-Thiadiazole Derivatives as Novel Potent Peptide Deformylase Inhibitors for Combating Drug-Resistant Gram-Positive and -Negative Bacteria” (J Med Chem, 2025).
Values after ≈ are worked out from the molar mass of the structure shown.

What was measured:
[1] = system: Staphylococcus epidermidis; assay: Antibacterial activity against Staphylococcus epidermidis after 16 to 18 hrs by broth microdilution method; assay type: functional; settings: time 16-18 hrs
[2] = system: Escherichia coli; assay: Antibacterial activity against Escherichia coli ATCC 10663 after 16 to 18 hrs by broth microdilution method; assay type: functional; settings: time 16-18 hrs
[3] = system: Staphylococcus aureus; assay: Antibacterial activity against methicillin-susceptible Staphylococcus aureus ATCC 29213 after 16 to 18 hrs by broth microdilution method; assay type: functional; settings: time 16-18 hrs
[4] = system: Acinetobacter baumannii; assay: Antibacterial activity against Acinetobacter baumannii Bio 24253 after 16 to 18 hrs by broth microdilution method; assay type: functional; settings: time 16-18 hrs
[5] = system: Staphylococcus aureus; assay: Bactericidal activity against methicillin-resistant Staphylococcus aureus assessed as bacteriostatic efficiency at 0.5 microg/mL incubated for 24 hrs by time killing analysis relative to control; assay type: functional; settings: dose 0.5 µg/ml
[6] = Cytotoxicity against human HeLa cells assessed as cell viability at 3.125 to 100 uM incubated for 24 hrs by MTT assay; assay type: toxicity, cell-based
[7] = system: Acinetobacter baumannii; assay: Antibacterial activity against Acinetobacter baumannii Bio 69680 after 16 to 18 hrs by broth microdilution method; assay type: functional; settings: time 16-18 hrs
[8] = system: Klebsiella pneumoniae; assay: Antibacterial activity against Klebsiella pneumoniae CICC 21611 after 16 to 18 hrs by broth microdilution method; assay type: functional; settings: time 16-18 hrs
[9] = system: Klebsiella pneumoniae; assay: Antibacterial activity against Klebsiella pneumoniae CICC 21092 after 16 to 18 hrs by broth microdilution method; assay type: functional; settings: time 16-18 hrs
[10] = system: Staphylococcus aureus; assay: Antibacterial activity against methicillin-susceptible Staphylococcus aureus ATCC 13709 after 16 to 18 hrs by broth microdilution method; assay type: functional; settings: time 16-18 hrs
[11] = system: Escherichia coli; assay: Antibacterial activity against Escherichia coli ATCC 10668 after 16 to 18 hrs by broth microdilution method; assay type: functional; settings: time 16-18 hrs
[12] = system: Staphylococcus aureus; assay: Antibacterial activity against methicillin-resistant Staphylococcus aureus Bio-090770 after 16 to 18 hrs by broth microdilution method; assay type: functional; settings: time 16-18 hrs
[13] = system: Acinetobacter baumannii; assay: Antibacterial activity against Acinetobacter baumannii Bio 53272 after 16 to 18 hrs by broth microdilution method; assay type: functional; settings: time 16-18 hrs
[14] = system: Staphylococcus aureus; assay: Antibacterial activity against methicillin-resistant Staphylococcus aureus ATCC 33591 after 16 to 18 hrs by broth microdilution method; assay type: functional; settings: time 16-18 hrs
[15] = Aqueous solubility of compound at 0.9% aqueous NaCl solution incubated for 2 hrs by UV spectrophotometry analysis; assay type: physicochemical
[16] = system: Acinetobacter baumannii; assay: Antibacterial activity against Acinetobacter baumannii Bio 120982 after 16 to 18 hrs by broth microdilution method; assay type: functional; settings: time 16-18 hrs
[17] = system: Staphylococcus aureus; assay: Antibacterial activity against methicillin-resistant Staphylococcus aureus ATCC 43300 after 16 to 18 hrs by broth microdilution method; assay type: functional; settings: time 16-18 hrs
[18] = system: Acinetobacter baumannii; assay: Antibacterial activity against Acinetobacter baumannii Bio 34235 after 16 to 18 hrs by broth microdilution method; assay type: functional; settings: time 16-18 hrs
[19] = Cytotoxicity against human HEK293T cells assessed as cell viability at 3.125 to 100 uM incubated for 24 hrs by MTT assay; assay type: toxicity, cell-based, HEK-293T
[20] = system: Acinetobacter baumannii; assay: Antibacterial activity against Acinetobacter baumannii Bio 53250 after 16 to 18 hrs by broth microdilution method; assay type: functional; settings: time 16-18 hrs
[21] = system: Acinetobacter baumannii; assay: Antibacterial activity against drug-resistant Acinetobacter baumannii Bio 53272 after 16 to 18 hrs by broth microdilution method; assay type: functional; settings: time 16-18 hrs
[22] = system: Escherichia coli; assay: Antibacterial activity against Escherichia coli ATCC 25922 after 16 to 18 hrs by broth microdilution method; assay type: functional; settings: time 16-18 hrs
[23] = system: Klebsiella pneumoniae; assay: Antibacterial activity against Klebsiella pneumoniae CICC 20093 after 16 to 18 hrs by broth microdilution method; assay type: functional; settings: time 16-18 hrs
[24] = system: Escherichia coli; assay: Antibacterial activity against Escherichia coli ATCC 10661 after 16 to 18 hrs by broth microdilution method; assay type: functional; settings: time 16-18 hrs
[25] = system: Staphylococcus aureus; assay: Antibacterial activity against methicillin-susceptible Staphylococcus aureus ATCC 25923 after 16 to 18 hrs by broth microdilution method; assay type: functional; settings: time 16-18 hrs
[26] = target: T1, Peptide deformylase (Escherichia coli, UniProt Q9JN24); assay: Inhibition of Escherichia coli PDF-Ni assessed as enzyme activity incubated for 30 min by fluorescamine method
T1 sequence (Q9JN24 whole entry): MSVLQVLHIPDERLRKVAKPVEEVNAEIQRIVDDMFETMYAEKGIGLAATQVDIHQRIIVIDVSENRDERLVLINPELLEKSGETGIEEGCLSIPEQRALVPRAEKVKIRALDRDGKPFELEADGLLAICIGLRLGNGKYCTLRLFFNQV

[27] = target: T2, Peptide deformylase (Staphylococcus aureus, UniProt P68826); assay: Inhibition of Staphylococcus aureus PDF-Ni assessed as enzyme activity incubated for 30 min by fluorescamine method
T2 sequence (P68826 whole entry): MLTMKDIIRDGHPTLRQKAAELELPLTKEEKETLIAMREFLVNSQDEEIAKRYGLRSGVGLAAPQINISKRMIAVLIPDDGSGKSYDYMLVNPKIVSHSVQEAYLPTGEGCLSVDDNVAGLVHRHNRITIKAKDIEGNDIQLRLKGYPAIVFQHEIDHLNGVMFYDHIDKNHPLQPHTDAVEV

[28] = Methemoglobin toxicity in human blood at 500 uM incubated for 6 hrs by MetHb content assay; assay type: tissue-based
[29] = Acute toxicity in KM mouse infected with drug-resistant Acinetobacter baumannii assessed as survival rate at 40 mg/kg; assay type: organism-based; settings: in vivo
[30] = Acute toxicity in KM mouse infected with drug-resistant Acinetobacter baumannii assessed as pathological changes in kidney at 40 mg/kg by HE staining based analysis; assay type: organism-based; settings: in vivo
[31] = Acute toxicity in KM mouse infected with drug-resistant Acinetobacter baumannii assessed as pathological changes in liver at 40 mg/kg by HE staining based analysis; assay type: organism-based; settings: in vivo
[32] = Acute toxicity in KM mouse infected with drug-resistant Acinetobacter baumannii assessed as pathological changes in lungs at 40 mg/kg by HE staining based analysis; assay type: organism-based; settings: in vivo

Row | Structure (SMILES) | MIC [1] [µg/mL] | MIC [2] [µg/mL] | MIC [3] [µg/mL] | MIC [4] [µg/mL] | IC50 at 24 h [6] [µM] | MIC [7] [µg/mL] | MIC [8] [µg/mL] | MIC [9] [µg/mL] | MIC [10] [µg/mL] | MIC [11] [µg/mL] | MIC [12] [µg/mL] | MIC [13] [µg/mL] | MIC [14] [µg/mL] | MIC [16] [µg/mL] | MIC [17] [µg/mL] | MIC [18] [µg/mL] | IC50 at 24 h [19] [µM] | MIC [21] [µg/mL] | MIC [22] [µg/mL] | MIC [25] [µg/mL] | also measured
1 | CCCC[C@H](CN(O)C=O)C(=O)N1CCC[C@H]1c1nnc(-c2ccc([N+](=O)[O-])cc2F)s1 | 0.5 (≈ 1.07 µM) | 8 (≈ 17.2 µM) | 0.5 (≈ 1.07 µM) | 32 (≈ 68.7 µM) | 91.7 | 16 (≈ 34.4 µM) | 16 (≈ 34.4 µM) | 32 (≈ 68.7 µM) | 0.5 (≈ 1.07 µM) | 16 (≈ 34.4 µM) | 0.5 (≈ 1.07 µM) | 16 (≈ 34.4 µM) | 0.125 (≈ 0.269 µM) | 16 (≈ 34.4 µM) | 0.125 (≈ 0.269 µM) | > 16 | > 100 | > 16 | > 16 | 0.25 (≈ 0.537 µM) | Activity [5]: 100%; solubility at 2 h [15]: 2020 µg/mL (≈ 4340 µM); MIC [20]: 16 µg/mL (≈ 34.4 µM); MIC [23]: 16 µg/mL (≈ 34.4 µM); MIC [24]: 8 µg/mL (≈ 17.2 µM)
2 | CCCC[C@H](CN(O)C=O)C(=O)N1CCC[C@H]1c1nnc(-c2ccc(C)s2)s1 | 1 (≈ 2.37 µM) |  | 2 (≈ 4.73 µM) |  |  |  | 32 (≈ 75.7 µM) |  | 2 (≈ 4.73 µM) |  | 2 (≈ 4.73 µM) |  | 0.25 (≈ 0.592 µM) |  | 0.25 (≈ 0.592 µM) | 32 (≈ 75.7 µM) |  | 16 (≈ 37.9 µM) | 64 (≈ 151 µM) | 4 (≈ 9.47 µM) | IC50 [26]: 0.0985 µM; IC50 [27]: 0.0074 µM
3 | Nc1ccc(S(=O)(=O)c2ccc(N)cc2)cc1 [DAPSONE] |  |  |  |  |  |  |  |  |  |  |  |  |  |  |  |  |  |  |  |  | Activity [28]: Toxic
4 | CC(=O)NC[C@H]1CN(c2ccc(N3CCOCC3)c(F)c2)C(=O)O1 [LINEZOLID] | 8 (≈ 23.7 µM) | 64 (≈ 190 µM) | 1 (≈ 2.96 µM) | 128 (≈ 379 µM) | > 100 | 128 (≈ 379 µM) | 128 (≈ 379 µM) | > 128 | 1 (≈ 2.96 µM) | 128 (≈ 379 µM) | 1 (≈ 2.96 µM) | 128 (≈ 379 µM) | 1 (≈ 2.96 µM) | 128 (≈ 379 µM) | 1 (≈ 2.96 µM) | 128 (≈ 379 µM) | > 100 | > 16 | > 128 | 1 (≈ 2.96 µM) | MIC [20]: 128 µg/mL (≈ 379 µM); MIC [23]: 128 µg/mL (≈ 379 µM); MIC [24]: 16 µg/mL (≈ 47.4 µM)
5 | CCCC[C@H](CN(O)C=O)C(=O)N1CCC[C@H]1c1nnc(-c2nccs2)s1 | 0.25 (≈ 0.61 µM) |  | 2 (≈ 4.88 µM) |  |  |  | > 16 |  | 0.5 (≈ 1.22 µM) |  | 1 (≈ 2.44 µM) |  | 0.25 (≈ 0.61 µM) |  | 0.25 (≈ 0.61 µM) | 16 (≈ 39.1 µM) |  | 8 (≈ 19.5 µM) | > 16 | 1 (≈ 2.44 µM) | Activity [28]: Toxic
6 | CCCC[C@H](CN(O)C=O)C(=O)N1CCC[C@H]1c1nnc(-c2ccc(Cl)s2)s1 | 0.5 (≈ 1.13 µM) |  | 1 (≈ 2.26 µM) |  | > 100 |  | 32 (≈ 72.2 µM) |  | 1 (≈ 2.26 µM) |  | 1 (≈ 2.26 µM) |  | 0.25 (≈ 0.564 µM) |  | 0.25 (≈ 0.564 µM) | 32 (≈ 72.2 µM) | > 100 | 16 (≈ 36.1 µM) | 32 (≈ 72.2 µM) | 1 (≈ 2.26 µM) | Activity [28]: Toxic
7 | CCCC[C@H](CN(O)C=O)C(=O)N1CCC[C@H]1C(=O)Nc1ccc(F)c[n+]1[O-] | 0.25 (≈ 0.631 µM) | 16 (≈ 40.4 µM) | 0.25 (≈ 0.631 µM) | 32 (≈ 80.7 µM) | > 100 | 16 (≈ 40.4 µM) | 64 (≈ 161 µM) | 64 (≈ 161 µM) | 0.25 (≈ 0.631 µM) | 32 (≈ 80.7 µM) | 0.5 (≈ 1.26 µM) | 32 (≈ 80.7 µM) | 0.125 (≈ 0.315 µM) | 16 (≈ 40.4 µM) | 0.25 (≈ 0.631 µM) | 32 (≈ 80.7 µM) | > 100 | > 16 | 32 (≈ 80.7 µM) | 0.5 (≈ 1.26 µM) | solubility at 2 h [15]: 1650 µg/mL (≈ 4160 µM); Activity [28]: Toxic; MIC [20]: 32 µg/mL (≈ 80.7 µM); MIC [23]: 64 µg/mL (≈ 161 µM); MIC [24]: 8 µg/mL (≈ 20.2 µM)
8 | O=C(O)c1cn(C2CC2)c2cc(N3CCNCC3)c(F)cc2c1=O [CIPROFLOXACIN] | 0.06 (≈ 0.181 µM) |  | 8 (≈ 24.1 µM) |  |  |  | 0.03 (≈ 0.0905 µM) |  | 8 (≈ 24.1 µM) |  | 0.5 (≈ 1.51 µM) |  | 0.25 (≈ 0.754 µM) |  | 64 (≈ 193 µM) | 0.5 (≈ 1.51 µM) |  | 32 (≈ 96.6 µM) |  | 4 (≈ 12.1 µM) | Activity [29]: Toxic; Activity [30]: Toxic; Activity [31]: Toxic; Activity [32]: Toxic
9 | CCCC[C@H](CN(O)C=O)C(=O)N1CCC[C@H]1c1nnc(-c2ccc(-c3ccccn3)cc2)s1 | 1 (≈ 2.09 µM) | 16 (≈ 33.4 µM) | 0.5 (≈ 1.04 µM) | 32 (≈ 66.7 µM) | 89 | 32 (≈ 66.7 µM) | 32 (≈ 66.7 µM) | 32 (≈ 66.7 µM) | 0.5 (≈ 1.04 µM) | 16 (≈ 33.4 µM) | 0.5 (≈ 1.04 µM) | 32 (≈ 66.7 µM) | 0.125 (≈ 0.261 µM) | 32 (≈ 66.7 µM) | 0.25 (≈ 0.521 µM) | 32 (≈ 66.7 µM) | > 100 | 32 (≈ 66.7 µM) | 64 (≈ 133 µM) | 0.25 (≈ 0.521 µM) | IC50 [26]: 0.124 µM; IC50 [27]: 0.0043 µM; solubility at 2 h [15]: 370 µg/mL (≈ 771 µM); MIC [20]: 32 µg/mL (≈ 66.7 µM); MIC [23]: 16 µg/mL (≈ 33.4 µM); MIC [24]: 16 µg/mL (≈ 33.4 µM)
